Data set [1] can be described thus: Solubility in water by HPLC analysis.
Data set [2] is described as follows: Solubility in ethanol by HPLC analysis. The note with it: vs compound 1.
Data set [3] has as its system pancreatic ductal adenocarcinoma (PDA) cells. The following applies: cited from earlier work.
The conditions of data set [4]: cited from earlier work.
For another data set, the system named is rickettsial infection. The following applies: mouse, in vivo; cited from earlier work.
A further data set relates to CYP450 enzymes. The following applies: cited from earlier work.
The conditions of data set [5]: cited from earlier work. This is another data set of the same source.
The subject of a further data set is PKA. The note with it: cited from earlier work.
The conditions of data set [6]: no reference given; cited from earlier work.
For the next data set, the system named is MIA PaCa-2 cells. The following applies: 10 mg/kg via i.p. injection for 3 weeks; cited from earlier work.
A further data set relates to plasma leptin. The following applies: 50 mg/kg by oral gavage for 3 weeks; cited from earlier work.
Another data set concerns hERG. The following applies: cited from earlier work.
For data set [7], the system named is Middle East respiratory syndrome coronavirus (MERS-Cov). The following applies: cited from earlier work.
A further data set has as its system PDEs. The following applies: cited from earlier work.

≈ marks a conversion by molar mass, not a printed value.

The values that follow come from article PMC4769034 (Journal of medicinal chemistry, 2015).

As to `CC(C)(C)c1cc(C(=O)/C(C#N)=N/Nc2cc(C(F)(F)F)cc(C(F)(F)F)c2)no1` [Compound 25, N′-(3,5-Bis(trifluoromethyl)phenyl)-2-(5-tert-butylisoxazol-3-yl)-2-oxoacetohydrazonoyl Cyanide], in [1] (vs compound 1), the “fold improvement of solubility in water in comparison with 1” value is “approximately 70 fold”. The compound further gave a solubility at 24 h in data set [1] (water) of 418 ± 17.3 µg/mL (≈ 968 µM). The “fold improvement of solubility in ethanol in comparison with 1” value in [2] is given as roughly 10 fold.
As for `CC(C)(C)c1cc(C(=O)/C(C#N)=N/Nc2cccc(Cl)c2)no1` [Compound 1, 2-(5-tert-butylisoxazol-3-yl)-N′-(3-chlorophenyl)-2-oxoacetohy-drazonoyl cyanide], in [3], the “PDA cell migration and invasion” value is given as “significant decrease”; the “effect on PDA cell proliferation and viability” value is reported as “no obvious effect”. For the same compound, the bioavailability entry in data set [4] is “excellent bioavailability”. Moreover, the “survival after rickettsial infection” value in the data set on rickettsial infection was “dramatically improved survival”. Besides, the “inhibitory activity toward CYP450 enzymes” value with CYP450 enzymes is “very weak inhibitory activities”. In addition, the toxicity to animals entry in data set [5] is listed as “low toxicity”. For the same compound, the “effect toward PKA” value in the data set on PKA is given as “no effect”. The membrane permeability entry in [6] is “good membrane permeability”. For the same compound, the “metastasis to the liver” value in the data set on MIA PaCa-2 cells is “significantly decrease metastasis to the liver”. In the data set with plasma leptin, the plasma leptin result is recorded as “significantly reduces plasma leptin”. Also, the “inhibitory activity toward hERG” value with hERG was “very weak inhibitory activities”. Besides, the MERS-CoV viral yields entry in data set [7] is recorded as “significantly reduce viral yields”. For the same compound, the “inhibitory effects on PDEs” value in the data set on PDEs is on record as “no significant inhibitory effects”.

What is called solubility is how much of the substance goes into solution per volume. Higher therefore signals much dissolved substance.
